Results reported in US20110098323A1, “INHIBITORS OF BACTERIAL BIOFILM FORMATION” (MICROBIOTIX, INC., priority 2009, published 2011).

How the values were obtained:
S. epidermidis 18972 = experiment: MBIC/MIC secondary assay (crystal violet biofilm staining / OD600 growth); assay type: cell-based, Staphylococcus epidermidis; conditions: S. epidermidis 18972, Table 2; for MBIC: lowest concentration inhibiting biofilm formation ≧80%; for MIC: Staphylococcus epidermidis, lowest concentration inhibiting growth ≧80%, read-out: MIC
Description: Assays for detecting and measuring bacterial biofilm formation are known in the art. An example of a biofilm formation assay useful in detecting and characterizing biofilm inhibitor compounds is described in Example 1, infra. Briefly, bacterial cells are inoculated into growth medium in individual wells of a 96-well assay plate in the presence or absence of a compound (known biofilm inhibitor or test compound). After incubation for a specified time, growth medium and non-biofilm bacterial cells are removed from each of the wells. The bacterial cells in any biofilms that are adhered to the surface of a well are fixed by addition of ethanol. The ethanol is removed, and the fixed biofilm bacteria cells are stained with crystal violet (CV). The intensity of CV staining is directly correlated with bacterial biofilm formation and is measured in the wells by reading the optical density at 600 nm (OD600). The difference in biofilm formation between untreated control and treated cultures provides an indication of relative biofilm inhibition activity (anti-biofilm activity). Use of different concentrations of an inhibitor in multiple and otherwise duplicate cultures permits determination of a compound's Minimal Biofilm Inhibitory Concentration (MBIC), which is defined herein as the lowest concentration of a compound that inhibits biofilm formation by at least 80% (i.e., ≧80%) compared to untreated control cultures.
A higher throughput was achieved by formatting the assay for use in flat-bottomed 96-well assay plates (Costar 3590 assay plates, Corning Life Sciences, Lowell, Mass.). The biofilm cultures grew on the bottoms of each well in a surface attached mode. In each assay plate, columns 1 and 12 contained untreated cultures, which served as negative controls (0% biofilm inhibition). Each of the assay wells in columns 2-11 contained a unique small molecule from the Microbiotix Screening Library (MSL) at a final concentration of 100 μM. Assay plates were inoculated with 200 μl/well of a culture of Staphylococcus pidermidis 18972 in 0.5×Tryptic Soy Broth (TSB; Becton Dickinson, Franklin Lakes, N.J.) in which the concentration of glucose was adjusted to 0.25% (w/v). The bacterial inocula were prepared by making a 1:100 dilution of an overnight culture grown in TSB in the media used for the screen. After inoculation, assay plates were sealed with foil tape and incubated at 37° C. for 18-20 hours (h). The optical density at 600 nm (OD600) was measured for each well using a VICTOR2V™ multiplate reader (Perkin Elmer, Waltham, Mass.) in order to quantify overall bacterial growth. The assay plates were processed to remove bacterial growth media and non-biofilm cells from the bottom of each assay well. This was accomplished by using a BioTek ELx405™ plate washer (BioTek Instruments, Inc., Winooski, Vt.). Biofilm bacteria were fixed by addition of 50 μl of 95% ethanol for 30 minutes (min). The ethanol was removed, and the fixed biofilm cultures were stained with 50 μl of 0.06% crystal violet (CV) for 60 min. Excess CV was removed by repeated washes using the BioTek ELx405™ plate washer. The amount of CV bound to each assay well was quantified by measuring OD600 using a VICTOR2V™ plate reader (Perkin Elmer).
A secondary assay provided a quantitative measure of both anti-biofilm activity and antibacterial activity in terms of the Minimal Biofilm Inhibitory Concentration (MBIC) and the Minimal Inhibitory Concentration (MIC), respectively. The MBIC and MIC are defined as the lowest compound concentrations that inhibit biofilm formation and bacterial growth, respectively, by at least 80% (i.e., ≧80%). The MBIC/MIC assay is formatted in a manner that is similar to the Microbroth dilution assays described by the Clinical and Laboratory Standards Institute (CLSI; formerly NCCLS) in protocol M7-A7. The growth conditions were optimized for biofilm growth in 96-well assay plates such that the resulting CV staining was within the linear range of detection. […]

S. aureus ATCC 35556 = experiment: MBIC/MIC secondary assay; assay type: cell-based, Staphylococcus aureus; conditions: S. aureus ATCC 35556, Table 2; for MIC: Staphylococcus aureus, ATCC35556, read-out: MIC
[1] = In vitro cytotoxicity assay (CC50), Alamar Blue; assay type: cell-based; conditions: human, HeLa cells, 10% Fetal Bovine Serum
Description: Validated hits were tested for general cytotoxicity against a mammalian cell line. In this assay, an assay plate was seeded with an immortalized human cell line (HeLa) and exposed to a series of two-fold dilutions of each test compound for 72 hours in standard media containing 10% Fetal Bovine Serum. After exposure to the compounds, the cellular viability was assessed using Alamar Blue™ (AccuMed International, Inc.), an oxidation-reduction indicator that is useful for quantitatively measuring cell-mediated cytotoxicity. Alamar Blue reduction was quantified using fluorescence measurements, and the data were analyzed using a two-parameter curve-fitting program (Assay Explorer, Elsevier MDL, San Rafael, Calif.) to determine the CC50 value, i.e., the compound concentration that decreases cellular viability by 50%. Compounds with CC50/MBIC≧50 were given highest priority. Validated hits that met the criteria for high priority were re-ordered from the original vendor and re-tested.

In the case of CCOc1cc(/C=C2\SC(=S)N(c3ccc(Br)cc3)C2=O)ccc1O [MSL-049293, 3-(4-bromophenyl)-5-(3-ethoxy-4-hydroxybenzylidene)-2-thioxothiazolidin-4-one], the MBIC (S. epidermidis 18972) is reported as 12.5 µM, the MIC (S. epidermidis 18972) is reported as ≥ 100 µM and the MBIC (S. aureus ATCC 35556) is reported as 1.5625 µM. For the same compound, the MIC (S. aureus ATCC 35556) was ≥ 100 µM and the CC50 at 72 h [1] was ≥ 100 µM.

In the case of COc1cc(/C=C2\SC(=S)N(c3cccc(Cl)c3)C2=O)cc(Br)c1O [MSL-049731, 3-(3-chlorophenyl)-5-(3-bromo-4-hydroxy-5-methoxybenzylidene)-2-thioxothiazolidin-4-one], the MBIC (S. epidermidis 18972) is reported as 25 µM, the MIC (S. epidermidis 18972) is reported as ≥ 100 µM and the MBIC (S. aureus ATCC 35556) is reported as 6.25 µM. For the same compound, the MIC (S. aureus ATCC 35556) was ≥ 100 µM.

With COc1ccc(C2=C/C(=C/c3ccc(O)c(OC)c3)C(=O)O2)c(OC)c1 [MSL-051097, 3-(4-hydroxy-3-methoxybenzylidene)-5-(2,4-dimethoxyphenyl)furan-2(3H)-one] the MBIC (S. epidermidis 18972) was 25 µM, the MIC (S. epidermidis 18972) was ≥ 100 µM and the MBIC (S. aureus ATCC 35556) was 6.25 µM. The MIC (S. aureus ATCC 35556) was ≥ 100 µM and the CC50 at 72 h [1] was 29.4 µM.
